Drawing on patent US9688695B2, “Imidazothiadiazole and imidazopyrazine derivatives as protease activated receptor 4 (PAR4) inhibitors for treating platelet aggregation” (BRISTOL-MYERS SQUIBB COMPANY, priority 2012, dated 2017), this text covers EC50 for 27 molecules.

Structures can show the parent of a compound that is named as a salt.

The target of the test is PAR4 (Homo sapiens (Human), UniProt Q96RI0). Kind of test: FLIPR assay in PAR4-expressing HEK293 cells (PAR4 antagonist activity, calcium mobilization). The note with it: H-Ala-Phe(4-F)-Pro-Gly-Trp-Leu-Val-Lys-Asn-Gly-NH2-induced calcium mobilization. It counts as cell-based. Summed up: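 HEK293 EBNA cells stably expressing human PAR4 (also endogenous PAR1) preincubated 30 min at room temperature with compound in HBSS/10 mM HEPES, 0.67% DMSO final. PAR4 agonist peptide then added and intracellular calcium mobilization monitored by fluorescence.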
PAR4, sequence (Q96RI0 18-385): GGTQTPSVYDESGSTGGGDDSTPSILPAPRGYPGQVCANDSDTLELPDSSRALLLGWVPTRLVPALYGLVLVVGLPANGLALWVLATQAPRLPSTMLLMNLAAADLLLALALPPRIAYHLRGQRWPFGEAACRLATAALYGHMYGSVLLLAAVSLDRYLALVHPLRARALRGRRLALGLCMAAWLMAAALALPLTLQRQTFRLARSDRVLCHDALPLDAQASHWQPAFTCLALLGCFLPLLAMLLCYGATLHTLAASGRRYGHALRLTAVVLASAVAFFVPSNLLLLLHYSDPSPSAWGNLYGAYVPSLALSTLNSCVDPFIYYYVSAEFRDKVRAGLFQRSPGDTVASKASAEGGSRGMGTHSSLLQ
As to `COc1cc(OCc2csc(C3(c4ccc(C)cc4)CCOCC3)n2)c2cc(-c3cn4nc(OC)sc4n3)oc2c1` [Example 157, 2-Methoxy-6-(6-methoxy-4-((2-(4-(p-tolyl)tetrahydro-2H-pyran-4-yl)thiazol-4-yl)methoxy)benzofuran-2-yl)imidazo[2,1-b][1,3,4]thiadiazole], the concentration giving a half-maximal response (EC50) was determined as 3.6 nM.
The figure for `COc1cccc(C2(c3nc(COc4cc(OC)cc5oc(-c6cn7nc(OC)sc7n6)cc45)cs3)CCOCC2)c1` [Example 158, 2-Methoxy-6-(6-methoxy-4-((2-(4-(3-methoxyphenyl)tetrahydro-2H-pyran-4-yl)thiazol-4-yl)methoxy)benzofuran-2-yl)imidazo[2,1-b][1,3,4]thiadiazole] is 0.95 nM; for `COc1ccc(C2(c3nc(COc4cc(OC)cc5oc(-c6cn7nc(OC)sc7n6)cc45)cs3)CCOCC2)cc1` [Example 159, 2-Methoxy-6-(6-methoxy-4-((2-(4-(4-methoxyphenyl)tetrahydro-2H-pyran-4-yl)thiazol-4-yl)methoxy)benzofuran-2-yl)imidazo[2,1-b][1,3,4]thiadiazole] it is 0.41 nM; for `COC(=O)c1ccc(C2(c3nc(COc4cc(OC)cc5oc(-c6cn7nc(OC)sc7n6)cc45)cs3)CCOCC2)cc1` [Example 160, Methyl 4-(4-(4-(((6-methoxy-2-(2-methoxyimidazo[2,1-b][1,3,4]thiadiazol-6-yl)benzofuran-4-yl)oxy)methyl)thiazol-2-yl)tetrahydro-2H-pyran-4-yl)benzoate] it is 0.5 nM.
For `COc1cc(OCc2csc(C3(c4ccccc4)CCOCC3)n2)c2cc(-c3cn4nc(OC)sc4n3)oc2c1` [Example 162, 2-Methoxy-6-(6-methoxy-4-((2-(4-phenyltetrahydro-2H-pyran-4-yl)thiazol-4-yl)methoxy)benzofuran-2-yl)imidazo[2,1-b][1,3,4]thiadiazole] the value was 0.67 nM; for `COc1cc(OCc2csc(C3(c4ccc(Cl)cc4)CCOC3)n2)c2cc(-c3cn4nc(OC)sc4n3)oc2c1` (stereo not drawn) [Example 163, 6-(4-((2-(3-(4-Chlorophenyl)tetrahydrofuran-3-yl)thiazol-4-yl)methoxy)-6-methoxybenzofuran-2-yl)-2-methoxyimidazo[2,1-b][1,3,4]thiadiazole], 0.82 nM; for `COc1cc(OCc2csc(C3(c4ccc(C)cc4)CCOC3)n2)c2cc(-c3cn4nc(OC)sc4n3)oc2c1` (stereo not drawn) [Example 164, 2-Methoxy-6-(6-methoxy-4-((2-(3-(p-tolyl)tetrahydrofuran-3-yl)thiazol-4-yl)methoxy)benzofuran-2-yl)imidazo[2,1-b][1,3,4]thiadiazole], 1.3 nM.
The figure for `COc1cc(OCc2csc(C3(c4cccc(Cl)c4)CCOC3)n2)c2cc(-c3cn4nc(OC)sc4n3)oc2c1` (stereo not drawn) [Example 165, 6-(4-((2-(3-(3-Chlorophenyl)tetrahydrofuran-3-yl)thiazol-4-yl)methoxy)-6-methoxybenzofuran-2-yl)-2-methoxyimidazo[2,1-b][1,3,4]thiadiazole] is 1.1 nM.
On to `COc1cc(OCc2csc(C3(c4ccccc4F)CCOC3)n2)c2cc(-c3cn4nc(OC)sc4n3)oc2c1` (stereo not drawn) [Example 166, 6-(4-((2-(3-(2-Fluorophenyl)tetrahydrofuran-3-yl)thiazol-4-yl)methoxy)-6-methoxybenzofuran-2-yl)-2-methoxyimidazo[2,1-b][1,3,4]thiadiazole], for which the EC50 amounted to 0.97 nM.
`COc1cc(OCc2csc(C3(C)CCOCC3)n2)c2cc(-c3cn4nc(OC)sc4n3)oc2c1` [Example 167, 2-Methoxy-6-(6-methoxy-4-((2-(4-methyltetrahydro-2H-pyran-4-yl)thiazol-4-yl)methoxy)benzofuran-2-yl)imidazo[2,1-b][1,3,4]thiadiazole]: the EC50 turned out to be 0.26 nM.
The figure for `COc1cc(OCc2csc(C3CCOc4ccccc43)n2)c2cc(-c3cn4nc(OC)sc4n3)oc2c1` (stereo not drawn) [Example 168, 6-(4-((2-(Chroman-4-yl)thiazol-4-yl)methoxy)-6-methoxybenzofuran-2-yl)-2-methoxyimidazo[2,1-b][1,3,4]thiadiazole] is 0.28 nM; for `COc1cc(OCc2csc(C3=CCOc4ccccc43)n2)c2cc(-c3cn4nc(OC)sc4n3)oc2c1` [Example 169, 6-(4-((2-(2H-Chromen-4-yl)thiazol-4-yl)methoxy)-6-methoxybenzofuran-2-yl)-2-methoxyimidazo[2,1-b][1,3,4]thiadiazole] it is 1.3 nM.
In the case of `COc1cc(OCc2csc(C3(N[S@+]([O-])C(C)(C)C)CCOCC3)n2)c2cc(-c3cn4nc(OC)sc4n3)oc2c1` [Example 170, (R)-N-(4-(4-(((6-Methoxy-2-(2-methoxyimidazo[2,1-b][1,3,4]thiadiazol-6-yl)benzofuran-4-yl)oxy)methyl)thiazol-2-yl)tetrahydro-2H-pyran-4-yl)-2-methylpropane-2-sulfinamide], the concentration for a half-maximal effect (EC50) came out at 1.7 nM.
The figure for `COc1cc(OCc2csc(C3(NS(=O)(=O)C(C)(C)C)CCOCC3)n2)c2cc(-c3cn4nc(OC)sc4n3)oc2c1` [Example 171, N-(4-(4-(((6-Methoxy-2-(2-methoxyimidazo[2,1-b][1,3,4]thiadiazol-6-yl)benzofuran-4-yl)oxy)methyl)thiazol-2-yl)tetrahydro-2H-pyran-4-yl)-2-methylpropane-2-sulfonamide] is 0.27 nM; for `COc1cc(OCc2csc(C3(N)CCOCC3)n2)c2cc(-c3cn4nc(OC)sc4n3)oc2c1` [Example 172, 4-(4-(((6-Methoxy-2-(2-methoxyimidazo[2,1-b][1,3,4]thiadiazol-6-yl)benzofuran-4-yl)oxy)methyl)thiazol-2-yl)tetrahydro-2H-pyran-4-amine, HCl] it is 0.94 nM.
The figure for `COc1cc(OCc2csc(C3(NC(=O)CNC(=O)OC(C)(C)C)CCOCC3)n2)c2cc(-c3cn4nc(OC)sc4n3)oc2c1` [Example 173, tert-Butyl (2-((4-(4-(((6-methoxy-2-(2-methoxyimidazo-[2,1-b][1,3,4]thiadiazol-6-yl)benzofuran-4-yl)oxy)methyl)-thiazol-2-yl)tetrahydro-2H-pyran-4-yl)amino)-2-oxoethyl)carbamate] is 0.67 nM; for `COc1cc(OCc2csc(C3(NC(=O)CN(C)C)CCOCC3)n2)c2cc(-c3cn4nc(OC)sc4n3)oc2c1` [Example 174, 2-(Dimethylamino)-N-(4-(4-(((6-methoxy-2-(2-methoxyimidazo[2,1-b][1,3,4]thiadiazol-6-yl)benzofuran-4-yl)oxy)methyl)-thiazol-2-yl)tetrahydro-2H-pyran-4-yl)acetamide] it is 24 nM.
For `COc1cc(OCc2csc(C(C)(C)c3ccccc3)n2)c2cc(-c3cn4nc(OC)sc4n3)oc2c1` [Example 175, 2-Methoxy-6-(6-methoxy-4-((2-(2-phenylpropan-2-yl)thiazol-4-yl)methoxy)benzofuran-2-yl)imidazo[2,1-b][1,3,4]thiadiazole], the concentration giving a half-maximal response (EC50) amounted to 1.4 nM.
For `COc1cc(OCc2csc(C(C)(C)c3ccc(Cl)cc3)n2)c2cc(-c3cn4nc(OC)sc4n3)oc2c1` [Example 176, 6-(4-((2-(2-(4-Chlorophenyl)propan-2-yl)thiazol-4-yl)methoxy)-6-methoxybenzofuran-2-yl)-2-methoxyimidazo[2,1-b][1,3,4]thiadiazole], the EC50 was 1.3 nM.
The figure for `COc1cc(OCc2csc(C3(c4cccnc4)CCC3)n2)c2cc(-c3cn4nc(OC)sc4n3)oc2c1` [Example 177, 2-Methoxy-6-(6-methoxy-4-((2-(1-(pyridin-3-yl)cyclobutyl)thiazol-4-yl)methoxy)benzofuran-2-yl)imidazo[2,1-b][1,3,4]thiadiazole] is 0.61 nM; for `C=C(c1cncnc1)c1nc(COc2cc(OC)cc3oc(-c4cn5nc(OC)sc5n4)cc23)cs1` [Example 178, 2-Methoxy-6-(6-methoxy-4-((2-(1-(pyrimidin-5-yl)vinyl)thiazol-4-yl)methoxy)benzofuran-2-yl)imidazo[2,1-b][1,3,4]thiadiazole] it is 0.87 nM.
Consider `CCN(CCC#N)C(=O)c1ccc(-c2nc(COc3cc(F)cc4oc(-c5cn6nc(OC)sc6n5)cc34)cs2)cc1` [Example 180, N-(2-Cyanoethyl)-N-ethyl-4-(4-(((6-fluoro-2-(2-methoxyimidazo[2,1-b][1,3,4]thiadiazol-6-yl)benzofuran-4-yl)oxy)methyl)thiazol-2-yl)benzamide], for which the half-maximal effective concentration (EC50) turned out to be 0.47 nM.
As for `COc1nn2cc(-c3cc4c(OCc5csc(-c6ccc(C(=O)NCC(F)(F)F)cc6)n5)cc(F)cc4o3)nc2s1` [Example 181, 4-(4-(((6-Fluoro-2-(2-methoxyimidazo[2,1-b][1,3,4]thiadiazol-6-yl)benzofuran-4-yl)oxy)methyl)thiazol-2-yl)-N-(2,2,2-trifluoroethyl)benzamide], the half-maximal effective concentration (EC50) stood at 0.72 nM.
The figure for `COc1nn2cc(-c3cc4c(OCc5csc(-c6ccc(C(=O)N(C)C(C)(C)C)cc6)n5)cc(F)cc4o3)nc2s1` [Example 182, N-(tert-Butyl)-4-(4-(((6-fluoro-2-(2-methoxyimidazo[2,1-b][1,3,4]thiadiazol-6-yl)benzofuran-4-yl)oxy)methyl)thiazol-2-yl)-N-methylbenzamide] is 0.3 nM.
The figure for `COc1nn2cc(-c3cc4c(OCc5csc(-c6ccc(C(=O)N7CCCC7)cc6)n5)cc(F)cc4o3)nc2s1` [Example 183, (4-(4-(((6-Fluoro-2-(2-methoxyimidazo[2,1-b][1,3,4]thiadiazol-6-yl)benzofuran-4-yl)oxy)methyl)thiazol-2-yl)phenyl)(pyrrolidin-1-yl)methanone] is 0.36 nM.
For `COc1nn2cc(-c3cc4c(OCc5csc(-c6ccc(C(=O)N(C)CC#N)cc6)n5)cc(F)cc4o3)nc2s1` [Example 184, N-(Cyanomethyl)-4-(4-(((6-fluoro-2-(2-methoxyimidazo[2,1-b][1,3,4]thiadiazol-6-yl)benzofuran-4-yl)oxy)methyl)thiazol-2-yl)-N-methylbenzamide] the value was 0.38 nM.
With `COc1nn2cc(-c3cc4c(OCc5csc(-c6ccc(C(=O)N(C)C)cc6)n5)cc(F)cc4o3)nc2s1` [Example 185, 4-(4-(((6-Fluoro-2-(2-methoxyimidazo[2,1-b][1,3,4]thiadiazol-6-yl)benzofuran-4-yl)oxy)methyl)thiazol-2-yl)-N,N-dimethylbenzamide], the EC50 came out at 0.41 nM.

The term EC50 denotes the concentration giving half of the maximal effect.
